Our source for the EC50 values is patent US7807707B2, “Hair and/or scalp care compositions incorporating amino-oxo-indole-ylidene compounds” (priority 2005, dated 2010).

Experiment [1] deals with T1, Cannabinoid Receptor 1 (CB1R) (Homo sapiens, UniProt P21554).
T1 construct: purchased Perkin-Elmer; host or cells: HEK293
Kind of experiment: CB1R radioligand assay on membranes from HEK293 cells over-expressing human recombinant CB1. Format: binding. The note with it: human recombinant CB1, [3H]CP-55,490 radioligand, n=3. As to the method: (§1) An amino-oxo-indole-ylidene compound of formula (I) was evaluated for its ability to activate Cannabinoid Receptor 1 (CB1R) and Cannabinoid Receptor 2 (CB2R). Its C log P value were also measured.
CB1R experiments were performed using membranes from HEK293 cells over-expressing human recombinant CB1, as described by the manufacturer (Perkin-Elmer) and using [3H]CP-55,490 as the radioligand.
(§2) Data of the active compound is expressed in Ki (mM) and are means±SEM of n=3 determinations.
(§3) The value stated is an EC50 value. This is defined as the molar concentration of an agonist, which produces 50% of the maximum possible response for that agonist. The values documented are in micromolar units.

Experiment [2] has as its target T2, Cannabinoid Receptor 2 (CB2R) (Homo sapiens, UniProt P34972).
T2 construct: purchased Perkin-Elmer; host or cells: HEK293
Kind of experiment: CB2R radioligand assay on membranes from HEK293 cells over-expressing human recombinant CB2. Format: binding. As to the method:
as §1
CB2R experiments were performed using membranes from HEK293 cells over-expressing human recombinant CB2, as described by the manufacturer (Perkin-Elmer), and using [3H]CP-55,495 as the radioligand.
as §2, §3

T1 sequence (P21554 whole entry): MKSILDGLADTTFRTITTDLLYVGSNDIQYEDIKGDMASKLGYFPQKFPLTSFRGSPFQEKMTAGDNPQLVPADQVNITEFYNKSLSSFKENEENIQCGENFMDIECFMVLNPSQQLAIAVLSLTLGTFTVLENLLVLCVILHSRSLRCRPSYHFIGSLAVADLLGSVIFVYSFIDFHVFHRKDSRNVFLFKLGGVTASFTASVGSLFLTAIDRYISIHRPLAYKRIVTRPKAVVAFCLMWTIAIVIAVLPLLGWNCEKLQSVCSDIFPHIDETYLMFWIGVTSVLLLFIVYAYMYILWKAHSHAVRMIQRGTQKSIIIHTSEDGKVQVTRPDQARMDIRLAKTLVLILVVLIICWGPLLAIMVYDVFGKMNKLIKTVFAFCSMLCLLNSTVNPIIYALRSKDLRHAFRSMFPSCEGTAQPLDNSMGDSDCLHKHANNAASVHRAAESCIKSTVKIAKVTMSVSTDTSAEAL
T2 sequence (P34972 whole entry): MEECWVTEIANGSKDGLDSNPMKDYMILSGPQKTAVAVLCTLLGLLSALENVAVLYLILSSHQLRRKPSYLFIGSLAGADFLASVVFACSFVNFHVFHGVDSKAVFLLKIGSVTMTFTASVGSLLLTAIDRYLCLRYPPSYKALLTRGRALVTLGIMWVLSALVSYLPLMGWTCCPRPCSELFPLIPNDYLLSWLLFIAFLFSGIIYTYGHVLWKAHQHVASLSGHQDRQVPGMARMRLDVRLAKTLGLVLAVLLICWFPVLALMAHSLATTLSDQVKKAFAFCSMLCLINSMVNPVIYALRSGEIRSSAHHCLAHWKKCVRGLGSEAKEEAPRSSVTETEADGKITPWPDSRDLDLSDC

A word on the EC50: it is the concentration at which the effect is half-maximal. Regarding `O=C(CNc1cccc2ccccc12)N/N=C1\C(=O)N(CCc2ccccc2)c2ccccc21` [Example 1, (naphthalen-1-ylamino)-acetic acid (2-oxo-1-phenethyl-1,2-dihydro-indol-3-ylidene)-hydrazide], the EC50 in experiment [1] was above 25 µM; in experiment [2], 21.1 µM.
